# ChEMBL document CHEMBL4402605, “A Chemical Switch for Transforming a Purine Agonist for Toll-like Receptor 7 to a Clinically Relevant Antagonist” (J Med Chem, 2020)
# pIC50: −log10 of the molar value. Calls of active or inactive are those of the source. The rule behind the calls is not given here.
# How the values were obtained:
# [1] = molecular target: T1, Toll-like receptor 8 (Homo sapiens) (UniProt Q9NR97); test: Antagonist activity at human TLR8 expressed in HEK-Blue cells assessed as inhibition of CL075-induced NFkappaB activation by measuring reduction in SEAP level up to 50 uM after overnight incubation using qunati-blue reagent by SEAP reporter gene-based spectrophotometric method; assay type: cell-based
# T1 sequence (whole entry): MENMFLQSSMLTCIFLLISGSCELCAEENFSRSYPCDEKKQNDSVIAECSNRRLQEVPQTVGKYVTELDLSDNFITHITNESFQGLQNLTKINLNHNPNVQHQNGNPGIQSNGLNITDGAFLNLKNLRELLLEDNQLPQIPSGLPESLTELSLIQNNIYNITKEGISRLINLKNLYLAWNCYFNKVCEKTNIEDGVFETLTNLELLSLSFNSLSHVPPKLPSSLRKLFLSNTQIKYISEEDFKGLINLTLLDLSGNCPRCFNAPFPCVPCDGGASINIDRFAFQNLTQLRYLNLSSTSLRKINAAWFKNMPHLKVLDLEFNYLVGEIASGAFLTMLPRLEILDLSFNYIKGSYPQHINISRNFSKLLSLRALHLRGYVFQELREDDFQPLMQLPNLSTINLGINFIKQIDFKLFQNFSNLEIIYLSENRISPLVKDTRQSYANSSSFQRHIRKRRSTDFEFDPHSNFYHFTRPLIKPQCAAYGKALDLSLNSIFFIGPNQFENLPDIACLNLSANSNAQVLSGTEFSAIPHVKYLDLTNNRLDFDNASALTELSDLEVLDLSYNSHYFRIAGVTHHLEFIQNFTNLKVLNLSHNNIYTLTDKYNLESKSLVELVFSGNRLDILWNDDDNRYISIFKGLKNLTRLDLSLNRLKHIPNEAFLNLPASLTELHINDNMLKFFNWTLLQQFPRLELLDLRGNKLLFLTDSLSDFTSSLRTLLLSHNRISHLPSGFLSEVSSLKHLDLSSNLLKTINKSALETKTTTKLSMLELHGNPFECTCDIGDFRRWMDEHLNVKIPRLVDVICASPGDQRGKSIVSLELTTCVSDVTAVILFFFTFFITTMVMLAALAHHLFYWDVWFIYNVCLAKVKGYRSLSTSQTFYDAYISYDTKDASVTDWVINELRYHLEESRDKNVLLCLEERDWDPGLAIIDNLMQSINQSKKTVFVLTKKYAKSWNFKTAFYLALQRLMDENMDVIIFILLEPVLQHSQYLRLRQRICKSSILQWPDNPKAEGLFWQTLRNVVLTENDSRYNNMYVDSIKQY
# [2] = Toxicity in C57BL/6 mouse assessed as change in lung alveolar architecture at 15 mg/kg, po administered once daily via gavage for 7 consecutive days and measured post-last dose by H and E staining based histomorphological analysis; assay type: organism-based; conditions: in vivo
# physchem = conditions: phosphate buffer, pH 7.4
# Description: Aqueous solubility of the compound in pH 7.4 0.25 M phosphate buffer at 500 uM incubated for 18 hrs under stirred condition by UV-HPLC analysis
# [3] = Clearance in mouse liver microsomes at 100 uM by LC-MS/MS analysis relative to hepatic blood flow
# Mus musculus [4] = test: (§1) Protection against imiquimod-induced C57BL/6 mouse model of psoriasis assessed as suppression of papillomatosis at 15 mg/kg, po administered via gavage treated 1 day prior to imiquimod application and subsequent daily dosing for 7 consecutive days and measured post-last dose by H and E staining based histopathological analysis; assay type: functional
# [5] = Toxicity in C57BL/6 mouse assessed as change in liver parenchymal architecture at 15 mg/kg, po administered once daily via gavage for 7 consecutive days and measured post-last dose by H and E staining based histomorphological analysis; assay type: organism-based; conditions: in vivo
# HEK293 = test: Cytotoxicity against HEK293 cells assessed as reduction in cell viability up to 100 uM measured after overnight incubation by propidium iodide staining based flow cytometry; conditions: human
# [6] = AUC (0 to 24 hrs) in C57BL/6 mouse at 15 mg/kg, iv by LC-MS/MS analysis; assay type: ADME, organism-based; design: time < 24 hr, dose 15 mg/kg, route intravenous; conditions: in vivo
# Mus musculus [7] = test: as §1, with “reduction in ISG15 mRNA expression” for “suppression of papillomatosis”, “SYBR green dye” for “H and E staining”, “qPCR” for “histopathological”; assay type: functional, organism-based
# [8] = Efflux ratio of apparent permeability across basal to apical side over apical to basal side in human Caco2 cells at 10 uM measured after 120 mins by LC-MS/MS analysis; conditions: Caco-2
# Toll-like receptor 7 = molecular target: T2, Toll-like receptor 7 (Homo sapiens, UniProt Q9NYK1)
# T2 sequence (Q9NYK1 whole entry): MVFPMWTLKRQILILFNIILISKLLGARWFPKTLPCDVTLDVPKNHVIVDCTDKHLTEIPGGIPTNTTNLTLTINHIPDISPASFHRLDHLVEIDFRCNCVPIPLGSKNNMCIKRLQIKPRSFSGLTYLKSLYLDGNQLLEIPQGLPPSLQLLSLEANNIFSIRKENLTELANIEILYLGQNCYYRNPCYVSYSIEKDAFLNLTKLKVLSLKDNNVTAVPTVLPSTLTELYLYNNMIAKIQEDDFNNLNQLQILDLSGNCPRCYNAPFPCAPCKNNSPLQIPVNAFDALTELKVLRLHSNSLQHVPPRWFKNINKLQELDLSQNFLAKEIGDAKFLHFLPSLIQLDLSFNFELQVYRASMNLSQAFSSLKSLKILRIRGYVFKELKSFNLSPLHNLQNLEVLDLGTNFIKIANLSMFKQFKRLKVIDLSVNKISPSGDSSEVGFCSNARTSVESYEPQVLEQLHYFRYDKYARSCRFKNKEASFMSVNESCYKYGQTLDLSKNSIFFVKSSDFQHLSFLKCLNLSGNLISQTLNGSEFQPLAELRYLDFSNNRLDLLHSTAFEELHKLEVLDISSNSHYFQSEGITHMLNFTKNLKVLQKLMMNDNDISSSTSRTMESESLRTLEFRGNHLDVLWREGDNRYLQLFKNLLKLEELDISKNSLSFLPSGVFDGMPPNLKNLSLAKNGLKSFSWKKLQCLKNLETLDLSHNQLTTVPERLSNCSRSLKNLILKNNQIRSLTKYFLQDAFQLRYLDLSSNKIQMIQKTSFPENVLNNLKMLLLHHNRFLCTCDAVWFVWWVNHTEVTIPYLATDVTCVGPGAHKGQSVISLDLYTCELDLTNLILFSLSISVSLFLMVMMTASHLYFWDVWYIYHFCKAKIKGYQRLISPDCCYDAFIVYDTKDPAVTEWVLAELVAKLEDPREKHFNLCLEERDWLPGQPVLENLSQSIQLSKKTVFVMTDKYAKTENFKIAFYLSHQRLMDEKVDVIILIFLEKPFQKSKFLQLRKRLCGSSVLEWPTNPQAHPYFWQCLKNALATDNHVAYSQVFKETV
# Description: Antagonist activity at human TLR7 expressed in HEK-Blue cells assessed as inhibition of CL264-induced NFkappaB activation by measuring reduction in SEAP level after overnight incubation using qunati-blue reagent by SEAP reporter gene-based spectrophotometric method
# [9] = Half life in human liver microsomes at 100 uM by LC-MS/MS analysis
# Mus musculus [10] = test: as §1, with “pustule formation” for “papillomatosis”; assay type: functional
# Mus musculus [11] = test: as §1, with “reduction in IFIT1 mRNA expression” for “suppression of papillomatosis”, “SYBR green dye” for “H and E staining”, “qPCR” for “histopathological”; assay type: functional, organism-based
# in vitro = conditions: human, plasma
# Description: Stability of the compound in human plasma assessed as parent compound remaining at 25 uM measured after 2 hrs by LC-MS/MS analysis
compound,measurement,setting,value
CCN1CCN(CCCn2cnc3c(N4CCN(CC)CC4)ncnc32)CC1,inhibition,[1],inactive
same,Activity,[2],Non-Toxic
same,"solubility at 18 h, 500 µM",physchem,0.2 mg/mL
same,hepatic extraction ratio at 100 µM,[3],0.144
same,Activity,Mus musculus [4],100%
same,Activity,[5],Non-Toxic
same,Activity,HEK293,Non-Toxic
same,AUC(0-t) at 24 h,[6],50.9 µg·h/mL
same,Activity,Mus musculus [7],Active
same,"efflux ratio at 2 h, 10 µM",[8],2.6
same,pIC50,Toll-like receptor 7,5.33
same,half-life at 100 µM,[9],1.5 h
same,Activity,Mus musculus [10],100%
same,Activity,Mus musculus [11],Active
same,"remaining at 2 h, 25 µM",in vitro,95%
